What was measured:
[1] = test system: barnyardgrass; assay: Test A pre-/postemergence herbicide test; type: in vivo, Echinochloa crus-galli; conditions: for Plant response rating, Barnyardgrass: 0 to 100 scale
Outline: (§1)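 Seeds sown in loam soil/sand blend received a preemergence directed soil spray of test chemical in non-phytotoxic solvent with surfactant; postemergence plants (2–10 cm, one- to two-leaf stage) were sprayed with the same formulation. After about 10 days in greenhouse, injury was rated visually versus untreated controls, 0 (no effect) to 100 (complete control).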

[2] = test system: kochia; assay: Test A pre-/postemergence herbicide test; type: in vivo, Kochia scoparia; conditions: for Plant response rating, Kochia: 0 to 100 scale
Outline: as §1

[3] = test system: ragweed; assay: Test A pre-/postemergence herbicide test; type: in vivo, Ambrosia elatior; conditions: for Plant response rating, Ragweed: 0 to 100 scale
Outline: as §1

[4] = test system: ryegrass, Italian; assay: Test A pre-/postemergence herbicide test; type: in vivo, Lolium multiflorum; conditions: for Plant response rating, Ryegrass, Italian: 0 to 100 scale
Outline: as §1

[5] = test system: giant foxtail; assay: Test A pre-/postemergence herbicide test; type: in vivo, Setaria faberii; conditions: for Plant response rating, Foxtail, Giant: 0 to 100 scale
Outline: as §1

[6] = test system: pigweed; assay: Test A pre-/postemergence herbicide test; type: in vivo, Amaranthus retroflexus; conditions: for Plant response rating, Pigweed: 0 to 100 scale
Outline: as §1

[7] = test system: wheat; assay: Test A pre-/postemergence herbicide test; type: in vivo, Triticum aestivum; conditions: Postemergence
Outline: as §1

[8] = test system: corn; assay: Test A pre-/postemergence herbicide test; type: in vivo, Zea mays; conditions: Postemergence
Outline: as §1

[9] = test system: blackgrass; assay: Test A postemergence herbicide test; type: in vivo, Alopecurus myosuroides
Outline: (§2)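 Ratings compare treated with untreated plants roughly 10 days after a postemergence application made at the one- to two-leaf stage. Scoring uses 0–100, where 0 means no effect and 100 complete control.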

[10] = test system: galium; assay: Test A postemergence herbicide test; type: in vivo, Galium aparine
Outline: as §2

[11] = test system: rice; assay: Test C flooded paddy test; type: in vivo, Oryza sativa; conditions: Flood
Outline: (§3)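 Visual injury scored against controls after 13 to 15 days in the greenhouse, using 0 (no effect) to 100 (complete control). Test compounds went straight into paddy water held 3 cm above the soil surface on 2-leaf-stage plants, with that flood depth maintained for the whole test.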

[12] = test system: sedge, umbrella; assay: Test C flooded paddy test; type: in vivo, Cyperus difformis; conditions: Flood
Outline: as §3

[13] = test system: ducksalad; assay: Test C flooded paddy test; type: in vivo, Heteranthera limosa; conditions: Flood
Outline: as §3

[14] = test system: barnyardgrass; assay: Test C flooded paddy test; type: in vivo, Echinochloa crus-galli; conditions: Flood
Outline: as §3

[15] = 125 g ai/ha, visual rating, 0 no effect, 100 complete control, approximately 10 days, preemergence
[16] = Postemergence, 125 g ai/ha, 0 is no effect, 100 is complete control
[17] = preemergence, 500 g ai/ha, 0 is no effect and 100 is complete control
[18] = 125 g ai/ha, 0 to 100 scale, 0 is no effect, 100 is complete control
[19] = 125 g ai/ha, scale of 0 to 100 where 0 is no effect and 100 is complete control, 13 to 15 days
[20] = 250 g ai/ha, scale of 0 to 100 where 0 is no effect and 100 is complete control, 13 to 15 days

O=C1NCC(c2cccc(C(F)(F)F)c2)C1C(=O)Nc1cccc(F)c1 (racemic) [Compound 208]
0: Plant response rating, Kochia [2, 15] | Plant response rating, Kochia [2, 16] | Plant response rating, Ragweed [3, 15] | Plant response rating, Ragweed [3, 16] | Plant response rating, Ragweed [3, 17] | Plant response rating, Ryegrass, Italian [4, 15] | Plant response rating, Ryegrass, Italian [4, 16] | Plant response rating, Pigweed [6, 15] | Plant response rating, Pigweed [6, 16] | Pigweed plant response rating (0 to 100 scale, 0 is no effect, 100 is complete control) ([6]; Postemergence, 500 g ai/ha) | Plant response rating, Pigweed [6, 17] | Plant response rating, Wheat [7, 18] | Plant response rating, Corn [8, 18] | Plant response rating, Galium [10, 18] | Plant response rating, Rice [11, 19] | Plant response rating, Rice [11, 20] | Plant response rating, Rice ([11]; 500 g ai/ha, scale 0 to 100) | Plant response rating, Sedge, Umbrella [12, 19] | Plant response rating, Sedge, Umbrella [12, 20] | Plant response rating, Sedge, Umbrella ([12]; 500 g ai/ha, scale 0 to 100) | Plant response rating, Sedge, Umbrella ([12]; 1000 g ai/ha, scale 0 to 100) | Plant response rating, Ducksalad [13, 19] | Plant response rating, Barnyardgrass [14, 19]
60: Kochia plant response rating (0 to 100 scale, 0 is no effect, 100 is complete control) ([2]; Postemergence, 500 g ai/ha) | Blackgrass plant response rating (0 to 100 scale, 0 is no effect, 100 is complete control) ([9]; 500 g ai/ha)
20: Plant response rating, Kochia [2, 17] | Ragweed plant response rating (0 to 100 scale, 0 is no effect, 100 is complete control) ([3]; Postemergence, 500 g ai/ha) | Plant response rating, Ryegrass, Italian [4, 17] | Plant response rating, Blackgrass [9, 18] | Plant response rating, Barnyardgrass [14, 20]
40: Plant response rating, Barnyardgrass [1, 15] | Ryegrass, Italian plant response rating (0 to 100 scale, 0 is no effect, 100 is complete control) ([4]; Postemergence, 500 g ai/ha) | Wheat plant response rating (0 to 100 scale, 0 is no effect, 100 is complete control) ([7]; 500 g ai/ha)
90: Plant response rating, Barnyardgrass [1, 17] | Plant response rating, Foxtail, Giant [5, 16] | Foxtail, Giant plant response rating (0 to 100 scale, 0 is no effect, 100 is complete control) ([5]; Postemergence, 500 g ai/ha) | Plant response rating, Foxtail, Giant [5, 17]
100: Plant response rating, Ducksalad ([13]; 1000 g ai/ha, scale 0 to 100)
80: Barnyardgrass plant response rating (0 to 100 scale, 0 is no effect, 100 is complete control) ([1]; Postemergence, 500 g ai/ha) | Plant response rating, Foxtail, Giant [5, 15]
65: Plant response rating, Barnyardgrass ([14]; 1000 g ai/ha, scale 0 to 100)
15: Plant response rating, Rice ([11]; 1000 g ai/ha, scale 0 to 100)
50: Plant response rating, Barnyardgrass [1, 16] | Corn plant response rating (0 to 100 scale, 0 is no effect, 100 is complete control) ([8]; 500 g ai/ha) | Galium plant response rating (0 to 100 scale, 0 is no effect, 100 is complete control) ([10]; 500 g ai/ha)
45: Plant response rating, Ducksalad [13, 20] | Plant response rating, Ducksalad ([13]; 500 g ai/ha, scale 0 to 100) | Plant response rating, Barnyardgrass ([14]; 500 g ai/ha, scale 0 to 100)
